Measurements: US9193708B2, “Non-flushing niacin analogues, and methods of use thereof” (Trustees of Tufts College, priority 2006, dated 2015)

Assays:
THP-1 macrophages = experiment: PGD2 release by THP-1 macrophages, proxy for flush inducing activity; type: cell-based; conditions: compared with niacin
Procedure: THP-1 cells were grown in RPMI complete media • 2×10^6 cells/well in 24 well flask were seeded in serum free media containing […] of PMA. Cells were allowed to differentiate into macrophages for 12 hours • The media was replaced with complete RPMI media and incubation continued for 5 hours • After incubation, media was aspirated and cells were treated with niacin and niacin analogs in 1 mL of serum free RPMI media. • Incubated for 30 min. […] of media was collected, PGD2 secreted was derivitized into stable MOX derivative. • PGD2 in the sample was assayed by using PGD2 assay kit from Cayman chemicals. Incorporation By Reference

Hep-G2 cells = experiment: HDL uptake by Hep-G2 cells (125I-labelled HDL), proxy for HDL-raising activity; type: cell-based; conditions: compared with niacin
Procedure: • Split HepG2 cells in 24 well plates 2˜3 days prior to niacin treatment, 0.5 mL complete DMEM media is added per well • Cells were pre-incubated with niacin (1 mM) for 24˜48 h • Wash HepG2 cells 3 times with PBS • Incubate HepG2 cells in […] medium C(DMEM containing 5 mg/mL fatty acid free BSA), containing ^125I-labelled HDL ([…] with specificity ofo 300-500 cpm/ng HDL protein. For 16 h • Aspirate the media and wash the cells with 0.5 mL of 0.1 mg/mL BSA-PBS twice, and with PBS twice • Cells were digested in […] of 1 N NaOH at room temperature overnight • […] of cell lysate was used for gamma-counting • […] of cell lysate was used for protein assay by BCA method • HDL uptake activity is expressed as “cpm of ^125I-HDL uptake/mg of cell protein.

[1] = humans, daily oral doses of 2-3 g; cited from earlier work

Structure (SMILES) | induction of PGD2 release / flush inducing activity relative to niacin (THP-1 macrophages) | reduction of HDL uptake / HDL-raising activity relative to niacin (Hep-G2 cells) | effect on Lp(a) [1]
O=C(O)C/C=C/c1cccnc1 [Compound 2035, 4-pyridin-3-yl-but-3-enoic acid] | very much less ability to induce PDG2 release | essentially as well as niacin | –
O=C(O)c1cccnc1 [niacin] | – | – | reduce Lp(a)
